Experiments:
Type in all cases: cell-based
[1] = tested on: human colon cancer cells (LS174T); experiment: LS174T growth inhibition; settings: FIG. 5 and FIG. 6
[2] = tested on: human melanoma cells (A375); settings: FIG. 1 and FIG. 2
Description: (§1) A375 cells (5,000 per well in 90% RPMI-1640 plus 10% Fetal Bovine Serum [FBS]) were pre-incubated in a black clear bottom 96-well plate in an atmosphere of 5% CO2 at 37° C. for 24 hours. Stock solutions of compounds in DMSO were diluted using a buffer and dilutions were added to each well. […] The final assay pH was 7.4. The cells were incubated in RPMI-1 640 with each compound for an additional 72 to 168 hours. Alamar Blue was added and the plate was incubated for an additional 12 hours. Fluorescence intensity was measured using a Gemini plate reader with excitation at 530 nm and emission at 590 nm. A decrease of 50 percent or more (≧50%) in fluorescence intensity relative to vehicle treated controls is an indication of significant anti-cancer activity.
TGI (Total Growth Inhibition): Test compound concentration where the increase in number or mass of cells after 72 to 168 hours is reduced to equal that at time t=0.

[3] = tested on: human hepatic carcinoma cells (HepG2); experiment: HepG2 Tumor Cell Proliferation Assay; settings: FIG. 3 and FIG. 4
Description: as §1, with “HepG2” for “A375”, “EMEM medium” for “RPMI-1640”, “[…]” for “96-well”, “EMEM medium” for “RPMI-1 640 with each compound”, “72” for “72 to 168”, “Blue (10% of culture volume)” for “Blue”

[4] = tested on: human head and neck squamous cell carcinoma cells (SCC 103); experiment: SCC103 Tumor Cell Proliferation Assay; settings: SCC 103 cells; FIG. 7 and FIG. 8
Description: as §1, with “SCC 103” for “A375”, “(15,000” for “(5,000”, “EMEM medium” for “RPMI-1640”, “EMEM medium” for “RPMI-1 640 with each compound”, “72” for “72 to 168”, “Blue (10% of culture volume)” for “Blue”

Measured: growth inhibitory effect compared to Bexarotene

C=C(c1ccc(CN2C(=O)CCNC2=O)cc1)c1cc2c(cc1C)C(C)(C)CCC2(C)C [Example 13, 3-{4-[1-(3,5,5,8,8-Pentamethyl-5,6,7,8-tetrahydro-naphthalen-2-yl)-vinyl]-benzyl}-dihydro-pyrimidine-2,4-dione]
enhanced activity: all assays above

C=C(c1ccc(CC(C(N)=O)C(N)=O)cc1)c1cc2c(cc1C)C(C)(C)CCC2(C)C [Example 8, 2-{4-[1-(3,5,5,8,8-Pentamethyl-5,6,7,8-tetrahydro-naphthalen-2-yl)-vinyl]-benzyl}-malonamide]
enhanced activity: all assays above

C=C(c1ccc(CN2C(=O)NC(C)(C)C2=O)cc1)c1cc2c(cc1C)C(C)(C)CCC2(C)C [Example 12, 5,5-Dimethyl-3-{4-[1-(3,5,5,8,8-pentamethyl-5,6,7,8-tetrahydro-naphthalen-2-yl)-vinyl]-benzyl}-imidazolidine-2,4-dione]
enhanced activity: all assays above

C=C(c1ccc(CN2C(=O)N(C)C(C)(C)C2=O)cc1)c1cc2c(cc1C)C(C)(C)CCC2(C)C [Example 14, 1,5,5-Trimethyl-3-{4-[1-(3,5,5,8,8-pentamethyl-5,6,7,8-tetrahydro-naphthalen-2-yl)-vinyl]-benzyl}-imidazolidine-2,4-dione]
enhanced activity: [1] | [2] | [4]

C=C(c1ccc(CN2C(=O)CSC2=O)cc1)c1cc2c(cc1C)C(C)(C)CCC2(C)C [Example 10, 3-{4-[1-(3,5,5,8,8-Pentamethyl-5,6,7,8-tetrahydro-naphthalen-2-yl)-vinyl]-benzyl}-thiazolidine-2,4-dione]
enhanced activity: [2] | [4]

C=C(c1ccc(CN2C(=O)CN(C)C2=O)cc1)c1cc2c(cc1C)C(C)(C)CCC2(C)C [Example 11, 1-Methyl-3-{4-[1-(3,5,5,8,8-pentamethyl-5,6,7,8-tetrahydro-naphthalen-2-yl)-vinyl]-benzyl}-imidazolidine-2,4-dione]
enhanced activity: all assays above
